Consider 12 compounds from US20120115817A1, “PHTHALIMIDE DERIVATIVES OF NON-STEROIDAL ANTI-INFLAMMATORY COMPOUNDS AND/OR TNF-ALPHA MODULATORS, METHOD FOR PRODUCING SAME, PHARMACEUTICAL COMPOSITIONS CONTAINING SAME AND USES THEREOF FOR THE TREATMENT OF INFLAMMATORY DISEASES” (EMS S.A., priority 2009, published 2012).

Structures are written as SMILES. “Also recorded” adds a separate entry of the source.

The test system of data set [1] is rat paw edema induced by carrageenan. The data set is described as follows: Rat paw edema induced by carrageenan. The class given is in vivo, Wistar rat. To be noted: orally; for anti-inflammatory activity compared with carrageenan-only control / anti-inflammatory activity compared with the standard NSAID: single dose of 100 μmol/kg. The procedure:
The anti-inflammatory activity of new phthalmidic derivatives claimed in this patent was evaluated through the model of paw edema induced by carrageenin.
The methodology to be reported can be found in detail in Bandarage, U. K.; Chen, L.; Fang, X.; Garvey, U. S.; Glavin, A.; Janero, D. R.; Letts, L. G.; Mercer, G. J.; Saha, J. K.; Schroeder, J. D.; Shumway, M. J.; Tam, S. W. Nitrosothiol Esters of Diclofenac: Synthesis and Pharmacological Characterization of the Gastrointestinal-Sparing Prodrugs. J. Med. Chem. v. 43, p. 4005-4016, 2000.
The injection of carrageenan in Wistar rat paw causes edema and local inflammation which can be seen by the increased thickness of the rat paw. Pre-treatment with compounds that have anti-inflammatory activity decreases the edema and inflammation caused by carrageenan administration.
The compounds of this invention have been administrated one (1) hour before inoculation of the irritating agent, carrageenan in the paws of the animals with the aid of a gavage tube orally, using water as a solvent.
The monitoring of the inflammation and the anti-inflammatory activity of the compounds of the invention was made by measuring the thickness in millimeters, of the rat's paw.
The control group received sub plantar injection, in the hind paws, the irritating chemical agent, carrageenan, and saline solution, orally.
The hind paws were measured before treatment and hourly for 6 hours after administration of carrageenan, through the thickness to determine their volumes (in mm). The results were expressed as the difference between the readings of the paws before and after treatments.

Data set [2] deals with gastric mucosa. The experiment in a line: Gastric lesion test (gastric ulcerogenesis). To be noted: for grade of gastric lesion (ulceration) / change in color or morphology of the gastric mucosa / lesion on the gastric lining / gastric ulceration: single dose of 100 μmol/kg; for grade of gastric lesion (ulceration): scale zero to 5. Details: key to grade of gastric lesion (ulceration): ground zero for the ulceration of compounds that do not damage the gastric lining; lesions <1 mm=grade 1; 1.5 to 2.5 mm grade 2; 2.5 to 3.5 mm=grade 3; 3.5 to 4.5 mm, and grade 4; >4.5 mm=grade 5. The class given is in vivo, rat. The source says:
We performed the evaluation of gastric lesions caused by new anti-inflammatory derived from phthalimide of the invention and compared with standard anti-inflammatory drugs (without molecular modification). The compounds were classified according to the grade of damage caused on a scale ranging from 1-5. It was assumed that: lesions <1 mm=grade 1, 1.5 to 2.5 mm grade 2, 2.5 to 3.5 mm=grade 3, 3.5 to 4.5 mm, and grade 4=>4.5 mm=grade 5. The results obtained were reported as averages±E. P. M. All results were submitted to the variance homogeneity test (Levene's Test) to confirm homogeneity. The results with not significant p (above 0.05), were subsequently subjected to Variance Analysis (ANOVA) followed by multiple comparison test (post hoc analyses) such as the Newman-Keul's test, and only the values of p were considered when they were equal or below 0.05.
The stomachs were also evaluated on the number of lesions observed.
In order to characterize the profile of gastric lesion caused by the new anti-inflammatory derivatives of the invention the extent of the lesions caused by the administration of said anti-inflammatory agents was measured.
The gastric ulcerogenesis was verified in the same animals from the groups used for the paw's edema model.
After six hours of readings of the legs, the animals were euthanized in CO2 and had their stomachs removed, opened towards greater curvature and washed with saline.
Through the exposure of the mucosa its color and integrity were shown. In the case of the existence of lesions, these were counted and measured according to the rate of gastric ulcerogenesis (IUG), which abides by numerical criteria for the classification of gastric mucosal lesions: (lesions <1 mm=1; 1.5 to 2.5 mm=2; 2.5 to 3.5 mm=3, 3.5 to 4.5 mm=4 and >4.5 mm=5). The results obtained were reported as averages±E. P. M.

The subject of data set [3] is abdominal contortions induced by acetic acid. The experiment in a line: Abdominal contortion test induced by acetic acid. The class given is in vivo, Swiss mice. The note with it: mice, oral; for inhibitory activity of abdominal contortion: 100 μmol/kg (FIG. 8); for Average (abdominal contortions): acetic acid 0.1 N; for % of inhibition of abdominal contortions: acetic acid 0.1 N (Table 2). The procedure: Additionally, we conducted the evaluation of possible adverse reactions of the compounds of the invention through the abdominal contortion test induced by acetic acid. […] The results are represented in FIG. 8.
The antinociceptive profile was evaluated by testing abdominal contortions induced by acetic acid in mice. In this assay, there were used Swiss mice of both sexes weighing between 21 and 28 g, fasted for a period of approximately 8 hours. The test-substance was administered orally and had as the gum Arabic at 5% as vehicle. One hour later, it was administered acetic acid at 0.1 N (0.1 mL/10 g weight) in the peritoneal cavity of the animals. Ten minutes after injection of acetic acid, the contortions were counted for 20 minutes.

Data set [4] shares this test system. The note with it: reports in the literature; cited from earlier work.

As for `O=C(NN1C(=O)c2ccccc2C1=O)c1ccccc1O` [Example 1.3, N-(1,3-dioxy-1,3-dihydro-2H-isoindol-2-yl)-2-hydroxybenzamide], the “anti-inflammatory activity compared with carrageenan-only control” value in data set [1] is listed as “significant anti-inflammatory activity”. Besides, the “total area of lesions” value in data set [2] (observed in six stomachs, 100 μmol/kg) is 2.9 mm^2. In data set [2] (rat, 100 μmol/kg), the “size of microlesions on the stomach lining” value is recorded as “less than 1 mm”. The “grade of gastric lesion (ulceration)” value in data set [2] (rat) is given as 1 (lesions <1 mm=grade 1). For the same compound, in data set [3] (100 μmol/kg), the “analgesic activity” value was “showed no analgesic activity”, the “Average (abdominal contortions)” value amounted to 54.5 and the “% of inhibition of abdominal contortions” value came out at 17.2%. The “inhibitory activity of abdominal contortion” value (shortened to “inhibitory activity”) in data set [3] is “around 17.2%”.

For `CC(C)Cc1ccc(C(C)C(=O)NN2C(=O)c3ccccc3C2=O)cc1` (stereo not shown) [Example 2.3, N-(1,3-dioxy-1,3-dihydro-2H-isoindol-2-yl)-2-(4-isobutylphenyl)propanamide], in data set [1], the “anti-inflammatory activity compared with carrageenan-only control” value is “significant anti-inflammatory activity” and the “anti-inflammatory activity compared with the standard NSAID” value is recorded as “superior activity compared with ibuprofen”. For the same compound, in data set [2] (rat), the “change in color or morphology of the gastric mucosa” value (shortened to “change in color or morphology”) is “a little change in color of the mucosa”, the “lesion on the gastric lining / gastric ulceration” value is listed as “no lesion on the gastric lining” and the “grade of gastric lesion (ulceration)” value is given as “zero”.

Turning to `COc1ccc2cc(C(C)C(=O)NN3C(=O)c4ccccc4C3=O)ccc2c1` (stereo not shown) [Example 3.3, N-(1,3-dioxy-1,3-dihydro-2H-isoindol-2-yl)-2-(6-methoxy-2-naphtyl)propanamide], in data set [1], the “anti-inflammatory activity compared with carrageenan-only control” value is “significant anti-inflammatory activity” and the “anti-inflammatory activity compared with the standard NSAID” value is given as “superior activity compared with ibuprofen; also recorded: much greater than naproxen”. In addition, in data set [2] (rat), the “change in color or morphology” value is “did not observe any—macro- and microscopically—morphological change or in the color of the stomach tissue”; the “lesion on the gastric lining / gastric ulceration” value is “no lesion on the gastric lining”; the “grade of gastric lesion (ulceration)” value is “zero”. In addition, in data set [3], the “inhibitory activity” value is recorded as “around 42.5%”. In data set [3] (100 μmol/kg), the “Average (abdominal contortions)” value stood at 37.8 and the “% of inhibition of abdominal contortions” value worked out at 42.5%.

`CC(C(=O)NN1C(=O)c2ccccc2C1=O)c1cccc(C(=O)c2ccccc2)c1` (stereo not shown) [Example 4.3, 2-(3-benzoylphenyl)-N-(1,3-dioxy-1,3-dihydro-2H-isoindol-2-yl)propanamide]: the “inhibitory activity” value in data set [3] is listed as ~37.9%. Moreover, in data set [3] (100 μmol/kg), the “Average (abdominal contortions)” value is on record as 40.8 and the “% of inhibition of abdominal contortions” value worked out at 37.9%.

On to `O=C(Cc1ccccc1Nc1c(Cl)cccc1Cl)NN1C(=O)c2ccccc2C1=O` [Example 5.3, 2-{2-[(2,6-dichlorophenyl)amino]phenyl}-N-(1,3-dioxy-1,3-dihydro-2H-isoindol-2-yl)acetamide], for which, in data set [1] (100 μmol/kg, time of 120 minutes), the “anti-inflammatory activity compared with diclofenac at 120 minutes” value is recorded as “significantly higher anti-inflammatory activity than that of diclofenac”. The “anti-inflammatory activity compared with diclofenac at 240 and 360 minutes” value in data set [1] (100 μmol/kg, times 240 and 360 minutes) is “same activity profile is kept”. In data set [1], the “anti-inflammatory activity compared with carrageenan-only control” value is on record as “significant anti-inflammatory activity”; the “anti-inflammatory activity compared with the standard NSAID” value is “significant anti-inflammatory activity when compared to positive control (carrageenan), and to diclofenac”. Further, in data set [2] (rat), the “change in color or morphology” value is “a little change in the color of the mucosa”, the “lesion on the gastric lining / gastric ulceration” value is listed as “no lesion on the gastric lining” and the “grade of gastric lesion (ulceration)” value is recorded as “zero”. For the same compound, the “inhibitory activity” value in data set [3] is recorded as ~16.2%. In data set [3] (100 μmol/kg), the “Average (abdominal contortions)” value amounted to 55.1 and the “% of inhibition of abdominal contortions” value is listed as 16.2%.

On to `Cc1ccc(Nc2c(F)cccc2Cl)c(CC(=O)NN2C(=O)c3ccccc3C2=O)c1` [Example 6.3, 2-{2-[(2-chloro-6-fluorophenyl)amine]-5-methylphenyl}-N-(1,3-dioxy-1,3-dihydro-2H-isoindol-2-1)acetamide], for which, in data set [1], the “anti-inflammatory activity compared with carrageenan-only control” value is on record as “significant anti-inflammatory activity”. Also, in data set [2] (rat), the “change in color or morphology” value is “did not observe any—macro- and microscopically—morphological change or in the color of the stomach tissue”; the “lesion on the gastric lining / gastric ulceration” value is “no lesion on the gastric lining”; the “grade of gastric lesion (ulceration)” value is “zero”.

For the compound `Cc1ccc(-c2cc(C(F)(F)F)nn2-c2ccc(S(N)(=O)=O)cc2)cc1` [celecoxib, reference compound], in data set [2] (rat), the “grade of gastric lesion (ulceration)” value was 2 (1.5 to 2.5 mm grade 2).

With `O=C(O)Cc1ccccc1Nc1c(Cl)cccc1Cl` [diclofenac, reference compound], the “grade of gastric lesion (ulceration)” value in data set [2] (rat) is 5 (>4.5 mm=grade 5). Besides, the “analgesic activity in this model according to the literature” value in data set [4] is given as “do not have analgesic activity”.

In the case of `CC(C)Cc1ccc(C(C)C(=O)O)cc1` (stereo not shown) [ibuprofen, reference compound], the “grade of gastric lesion (ulceration)” value in data set [2] (rat) was 5 (>4.5 mm=grade 5).

Turning to `Cc1ccc(Nc2c(F)cccc2Cl)c(CC(=O)O)c1` [lumiracoxib, reference compound], the “grade of gastric lesion (ulceration)” value in data set [2] (rat) is 2 (1.5 to 2.5 mm grade 2).

On to `COc1ccc2cc([C@H](C)C(=O)O)ccc2c1` [naproxen, reference compound], for which, in data set [2] (rat), the “grade of gastric lesion (ulceration)” value is reported as 5 (>4.5 mm=grade 5). For the same compound, the “inhibitory activity” value in data set [3] is on record as “about 43%”.

On to `O=C(O)c1ccccc1O` [salicylic acid, reference compound], for which the “grade of gastric lesion (ulceration)” value in data set [2] (rat) is on record as 5 (>4.5 mm=grade 5).
